Test results reported in patent US12414996B2, “Organic anion transporting peptide-based cancer imaging and therapy” (Da Zen Theranostics, Inc., priority 2014, dated 2025).

What was measured:
[1] = test system: BX-PC3; assay: Cytotoxicity (IC50) on cancer cell growth in vitro, BX-PC3; format: cell-based, human; details: BX-PC3 pancreatic cancer cells in culture
[2] = test system: MiaPaCa II; assay: Cytotoxicity (IC50) on cancer cell growth in vitro, MiaPaCa II; format: cell-based, human; details: MiaPaCa II pancreatic cancer cells in culture
[3] = test system: LNCaP; assay: Cytotoxicity (IC50) on cancer cell growth in vitro, LNCaP; format: cell-based, human; details: LNCaP prostate cancer cells in culture
[4] = test system: PC-3; assay: Cytotoxicity (IC50) on cancer cell growth in vitro, PC-3; format: cell-based, human; details: PC-3 prostate cancer cells in culture
[5] = test system: C4-2; assay: Cytotoxicity (IC50) on cancer cell growth in vitro, C4-2; format: cell-based, human; details: C4-2 prostate cancer cells in culture
[6] = test system: cancer; assay: In vivo cancer targeting of heptamethine cyanine dye derivatives (Nuclear/NIR imaging); details: tumor specific uptake by Nuclear/NIR imaging
Description: The inventor synthesized several heptamethine cyanine dye derivatives (Table 1) and evaluated the tumor specific uptake using Nuclear/NIR imaging.

[7] = test system: pancreatic PDX tumors; assay: Uptake of NIR dye by pancreatic PDX tumors implanted in mouse subrenal capsules; format: in vivo; details: subrenal capsule implant
Description: (A) NIR fluorescent imaging of mouse bearing human pancreatic PDX tumors in subrenal capsules (excitation: 783 nm; […] nm) (B) Ex vivo bright field and NIR fluorescent imaging of pancreatic PDX tumors in the kidney capsules and other organs harvested from mouse and (C) the NIR fluorescent intensity was quantified for the tumor and for each organ (total radiance efficiency [p/s]/[μW/cm^2]) (D) Fluorescent microscopy of DAPI, NIR, and merged images of frozen section of pancreatic PDX tumor in the kidney capsule. White dash line outlines the mouse kidney and red dash line outlines the pancreatic PDX tumor.
The uptakes of NIR dye MHI-148, by pancreatic patient-derived xenografts (PDX) tumors implanted in mouse subrenal capsules were investigated. […] White dash line outlines the mouse kidney and red dash line outlines the pancreatic PDX tumor.

[8] = test system: prostate PDX tumors; assay: Uptake of NIR dye by prostate PDX tumors implanted in mouse subrenal capsules; format: in vivo; details: i.p., imaging after 48 hours, excitation 783 nm, emission 840 nm
Method: (A) Representative NIR fluorescence imaging of control mouse with no tumor and mouse with sham-operation and PCa implantation in the subrenal capsules of the kidneys. Mice were injected i.p with NIR dye, MHI-148, 48 hours before fluorescence imaging at excitation of 783 nm and emission of 840 nm. […] (B) Representative ex vivo NIR fluorescence imaging of kidneys with sham operation and PCa tumor implantations. NIR fluorescence signal was only detected in the growing PCa tumors implanted in the subrenal capsule of the right kidney. (C) Fluorescent microscopy of DAPI, NIR, and merged images of frozen sections of the human PCa tumor and the mouse kidney from the subrenal xenograft model (200× magnification) (D) Representative H&E staining of the PCa tumors implanted in the mouse kidney capsule (40× magnification; inlet: 400× magnification).
The uptakes of NIR dye MHI-148 by prostate PDX tumors implanted in mouse subrenal capsules were investigated. […] Mice were injected i.p with NIR dye, MHI-148. After 48 hours, fluorescence imaging was performed with an excitation of 783 nm and emission of 840 nm. […] NIR fluorescence signal was only detected in the growing prostate cancer tumors implanted in the subrenal capsule of the right kidney.

[9] = test system: C4-2B; assay: Cytotoxicity (IC50) on cancer cell growth in vitro, C4-2B; format: cell-based, human; details: C4-2B prostate cancer cells in culture
[10] = test system: CW22Rv1 cells; details: 5 μM, 10 min
Method: (§1) (A) Uptake of DZ-1-Gem (5 μM, 10 min) by U87 and CW22Rv1 cells. IR-783 was used a positive control in parallel. Scale bar represents 50 μm. (B) Proliferation of U87 cells treated with vehicle, gemcitabine (200 nM) or DZ-1-Gem (200 nM) for 4 consecutive days.
(§2) IR-783 was used a positive control in parallel. Scale bar represents 50 μm.

[11] = test system: U87 cells; details: 5 μM, 10 min
Method: as §1, §2

[12] = test system: CW22Rv1 prostate tumor brain metastases; assay: Survival of mice bearing CW22Rv1 prostate tumor brain metastases (Kaplan-Meier); format: in vivo; details: 10 mg/kg, twice a week; p<0.001 (log-rank test) vs vehicle
Description: as §2

[13] = test system: prostate cancer PC3 cells; details: DZ-1-gemcitabine 10 mg/kg vs gemcitabine 2.5 mg/kg, twice a week i.p.
Description: (§3) Arrows indicate the onset of treatments. * p<0.05; ** p<0.01; *** p<0.001.
as §3

[14] = test system: pancreatic MIAPaCa cells; details: DZ-1-gemcitabine 10 mg/kg vs gemcitabine 2.5 mg/kg, twice a week i.p.
Description: as §3, §3

[15] = test system: MIAPaCa tumors; details: 10 mg/kg; subcutaneous luc-tagged MIAPaCa tumors; in vivo and ex vivo imaging
[16] = test system: intracranial U87 tumor; details: 10 mg/kg, twice a week
Method: as §1
(§4) In these experiments, cells were fixed and stained with crystal violet, and OD value at the wavelength of 595 nm was determined (n=5 for each experimental group, mean±SEM) *p<0.05, **p<0.01.

[17] = test system: U87 cells; details: 200 nM, 4 consecutive days
Method: as §1, §4

[18] = test system: prostate cancer PC3 tumors; assay: Uptake by prostate cancer PC3 tumors in mice (NIR imaging); format: in vivo; details: for uptake by PC3 tumor in mice: 100 nmole i.p., imaged 48 hours thereafter
[19] = test system: LNCaP; assay: Tumor cell growth inhibition IC50, LNCaP; format: cell-based; details: Prostate Cancer cell line LNCaP; read-out: Half maximal inhibitory concentration (IC50) LNCaP
Description: (§5) In addition to DZ-1-Gem, some agents of the invention may include other antitumor active moieties, such as cisplatin. For example, the tumor cell growth inhibition activities of DZ-1 linked with cisplatin (“DZ-1-cisplatin”) were compared with those of cisplatin alone in various tumor cells, including prostate, breast, renal, kidney, and lung cancer cell lines.

[20] = test system: PC3; assay: Tumor cell growth inhibition IC50, PC3; format: cell-based; details: Prostate Cancer cell line PC3; read-out: Half maximal inhibitory concentration (IC50) PC3
Description: as §5

[21] = test system: Hep G2; assay: Tumor cell growth inhibition IC50, Hep G2; format: cell-based; details: Hepatic Cancer cell line Hep G2; read-out: Half maximal inhibitory concentration (IC50) Hep G2
[22] = test system: H358; assay: Tumor cell growth inhibition IC50, H358; format: cell-based; details: Lung Cancer cell line H358; read-out: Half maximal inhibitory concentration (IC50) H358
Description: as §5

[23] = test system: ACHN; assay: Tumor cell growth inhibition IC50, ACHN; format: cell-based; details: Renal Cancer cell line ACHN; read-out: Half maximal inhibitory concentration (IC50) ACHN
Description: as §5

[24] = test system: C4-2B; assay: Tumor cell growth inhibition IC50, C4-2B; format: cell-based; details: Prostate Cancer cell line C4-2B; read-out: Half maximal inhibitory concentration (IC50) C4-2B
Description: as §5

[25] = test system: MCF-7; assay: Tumor cell growth inhibition IC50, MCF-7; format: cell-based; details: Breast Cancer cell line MCF-7; read-out: Half maximal inhibitory concentration (IC50) MCF-7
Description: as §5

Compound `CC(=O)O[C@@]12CO[C@@H]1C[C@H](O)[C@@]1(C)C(=O)[C@H](O)C3=C(C)[C@@H](OC(=O)[C@H](O)[C@@H](NC(=O)OC(C)(C)C)c4ccccc4)C[C@@](O)([C@@H](OC(=O)c4ccccc4)[C@H]21)C3(C)C` [Docetaxel] has an IC50 ([1]; Homo sapiens, BXPC-3) of 7 nM, an IC50 ([2]; Homo sapiens, MIA PaCa-2) of 6 nM and an IC50 ([3]; Homo sapiens) of 10 nM. For the same compound, the IC50 ([4]; Homo sapiens) was 330 nM and the IC50 ([5]; Homo sapiens) was 3200 nM.
In the case of `CC1(C)C(/C=C/C2=C(Cl)C(=C/C=C3/N(CCCCS(=O)(=O)O)c4ccccc4C3(C)C)/CCC2)=[N+](CCCCS(=O)(=O)[O-])c2ccccc21`, the Cancer targeting [6] is reported as “Positive”.
`CC1(C)C(/C=C/C2=C(SCCC(=O)Nc3ccn(C4OC(CO)C(O)C4(F)F)c(=O)n3)C(=C/C=C3/N(CCCCS(=O)(=O)O)c4ccccc4C3(C)C)/CCC2)=[N+](CCCCS(=O)(=O)[O-])c2ccccc21` (stereo not drawn) was tested, and the Cancer targeting [6] was “Negative”.
In the case of `CC1(C)C(/C=C/C2=C(NCCCC(=O)O)C(=C/C=C3/N(CCCCS(=O)(=O)O)c4ccccc4C3(C)C)/CCC2)=[N+](CCCCS(=O)(=O)[O-])c2ccccc21`, the Cancer targeting [6] is reported as “Negative”.
For `CC1(C)C(/C=C/C2=C(Cl)C(=C/C=C3/N(CCCCCC(=O)Nc4ccc(CC5CN(CC(=O)O)CCN(CC(=O)O)CCN5CC(=O)O)cc4)c4ccccc4C3(C)C)/CCC2)=[N+](CCCCS(=O)(=O)[O-])c2ccccc21` (stereo not drawn), the Cancer targeting [6] was “Positive”.
`Nc1ccn([C@@H]2O[C@H](CO)[C@@H](O)C2(F)F)c(=O)n1` [Gemcitabine] was tested, and the IC50 ([1]; Homo sapiens, BXPC-3) was 135 nM, the IC50 ([2]; Homo sapiens, MIA PaCa-2) was 22 nM and the IC50 ([3]; Homo sapiens) was 250 nM. It also gave an IC50 ([4]; Homo sapiens) of 380 nM and an IC50 ([5]; Homo sapiens) of 85 nM.
For `CC1(C)C(/C=C/C2=C(Cl)C(=C/C=C3/N(CCCCCC(=O)Nc4ccn(C5OC(CO)C(O)C5(F)F)c(=O)n4)c4ccccc4C3(C)C)/CCC2)=[N+](CCCCS(=O)(=O)[O-])c2ccccc21` (stereo not drawn), the Cancer targeting [6] was “Positive”.
In the case of `CC1(C)C(/C=C/C2=C(Cl)C(=C/C=C3\N(CCCCCC(=O)O)c4ccccc4C3(C)C)/CCC2)=[N+](CCCCCC(=O)O)c2ccccc21` [MHI-148], the “uptake of NIR dye in pancreatic PDX tumor vs mouse kidney (fluorescent microscopy of frozen section)” value [7] is reported as “Only the pancreatic tumor uptakes the NIR dye” and the “NIR fluorescence signal (uptake) in prostate PDX tumor vs sham-operated kidney and control mouse” value [8] is reported as “Only the prostate cancer tumor implanted in the subrenal capsule of the right kidney showed the NIR fluorescence signal”.
`CC1(C)C(/C=C/C2=C(SCCCC(=O)O)C(=C/C=C3/N(CCCCS(=O)(=O)O)c4ccccc4C3(C)C)/CCC2)=[N+](CCCCS(=O)(=O)[O-])c2ccccc21` was tested, and the Cancer targeting [6] was “Negative”.
In the case of `CCC(=[N][Pt]([NH2])([NH2])[Cl])N(C)CCNC(=O)CCCCCN1/C(=C/C=C2\CCCC(/C=C/C3=[N+](CCCCS(=O)(=O)[O-])c4ccccc4C3(C)C)=C2Cl)C(C)(C)c2ccccc21`, the Cancer targeting [6] is reported as “Positive”.
For `CC1(C)C(/C=C/C2=C(Cl)C(=C/C=C3/N(CCCCCC(=O)O)c4ccccc4C3(C)C)/CCC2)=[N+](CCCCS(=O)(=O)[O-])c2ccccc21`, the Cancer targeting [6] was “Positive”.
In the case of `CC1(C)C(/C=C/C2=C(Cl)C(=C/C=C3/N(CCCCCC(=O)O)c4ccccc4C3(C)C)/CCC2)=[N+](CCCCCC(=O)O)c2ccccc21`, the Cancer targeting [6] is reported as “Positive”.
For `CC1(C)C(/C=C/C2=C(Cl)C(=C/C=C3/N(CCCCCC(=O)NCCCCC(NC(=O)CN4CCN(CC(=O)O)CCN(CC(=O)O)CCN(CC(=O)O)CC4)C(=O)O)c4ccccc4C3(C)C)/CCC2)=[N+](CCCCS(=O)(=O)[O-])c2ccccc21` (stereo not drawn), the Cancer targeting [6] was “Positive”.
`C#CCN(C)CCCOc1ccc(Cl)cc1Cl` [Clorgyline] gave an IC50 [9] of 114000 nM, an IC50 [3] of 81000 nM and an IC50 [4] of 120000 nM.
In the case of IR-783-gemcitabine [DZ-1-gemcitabine], the IC50 [1] is reported as 230 nM, the “uptake by CW22Rv1 cells” value [10] is reported as “readily taken up” and the “uptake by U87 cells” value [11] is reported as “readily taken up”. For the same compound, the IC50 [2] was 85 nM, the survival of mice [12] was “significantly improved survival” and the “prevention and inhibition of subcutaneous PC3 tumor growth (tumor volume)” value [13] was “more effective than Gemcitabine”. The “prevention and inhibition of subcutaneous MIAPaCa tumor growth (tumor volume)” value [14] was “more effective than Gemcitabine”, the “uptake by MIAPaCa tumors vs normal organs” value [15] was “specifically by prostate and pancreatic tumors but not normal organs” and the IC50 [3] was 340 nM. The IC50 [4] was 420 nM, the “intracranial U87 tumor growth (bioluminescence)” value [16] was “effectively suppressed tumor growth, resulting in no bioluminescence” and the “inhibition of U87 cell proliferation” value [17] was “as effective as Gem”. The “uptake by PC3 tumor in mice” value [18] was “accumulate only in the tumor cells, but not in the normal organs”, the “uptake by PC3 tumors vs normal organs” value ([18]; 10 mg/kg, subcutaneous luc-tagged PC3 tumors, in vivo and ex vivo imaging) was “specifically by prostate and pancreatic tumors but not normal organs” and the IC50 [5] was 93 nM.
In the case of `N.N.[Cl][Pt][Cl]` [Cisplatin, reference compound], the IC50 [19] is reported as greater than 50000 nM, the IC50 [20] is reported as greater than 50000 nM and the IC50 [21] is reported as greater than 50000 nM. The IC50 [22] was greater than 50000 nM, the IC50 [23] was 28700 nM and the IC50 [24] was greater than 50000 nM.
Work on “IR-783-N1-methylethylenediamine-cisplatin [DZ-1-cisplatin]” yielded an IC50 [19] of 21600 nM, an IC50 [20] of 7570 nM and an IC50 [21] greater than 50000 nM. The IC50 [22] was 4950 nM, the IC50 [23] was 4030 nM and the IC50 [25] was 13100 nM. The IC50 [24] was 15900 nM and the “uptake by PC3 tumor in mice” value [18] was “accumulate only in the tumor cells, but not in the normal organs”.
